Earlier results as cited in patent US6548270B1, “DNA encoding human acid-sensing ion channel BNaC4 (ASIC4)” (Ortho-McNeil Pharmaceutical, Inc., priority 2000, dated 2003).

What was measured:
ASIC1B = molecular target: T1, ASIC1B (Rattus norvegicus, UniProt P55926); details: read-out: Amiloride sensitivity, IC50; cited from earlier work
T1 sequence (P55926 1-559 isoform P55926-3): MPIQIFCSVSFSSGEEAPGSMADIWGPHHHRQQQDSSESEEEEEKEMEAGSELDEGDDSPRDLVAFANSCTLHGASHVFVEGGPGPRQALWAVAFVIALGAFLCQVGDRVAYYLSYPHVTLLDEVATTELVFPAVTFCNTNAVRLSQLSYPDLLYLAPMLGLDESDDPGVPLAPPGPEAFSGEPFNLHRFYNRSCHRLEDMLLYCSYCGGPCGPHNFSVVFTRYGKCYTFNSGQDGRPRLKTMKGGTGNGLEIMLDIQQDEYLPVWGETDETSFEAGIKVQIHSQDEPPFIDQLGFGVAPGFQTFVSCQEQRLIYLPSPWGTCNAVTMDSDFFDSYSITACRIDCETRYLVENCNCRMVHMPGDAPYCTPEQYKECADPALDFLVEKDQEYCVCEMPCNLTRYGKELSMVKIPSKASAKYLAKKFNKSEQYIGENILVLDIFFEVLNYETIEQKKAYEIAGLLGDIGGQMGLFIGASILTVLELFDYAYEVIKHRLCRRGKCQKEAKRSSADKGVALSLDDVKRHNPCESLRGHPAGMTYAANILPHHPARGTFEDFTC

MDEG1 + MDEG2 = molecular target: T2, MDEG1 + MDEG2 (Rattus norvegicus, UniProt Q62962); details: 500 μM amiloride; cited from earlier work
T2 sequence (Q62962 1-512): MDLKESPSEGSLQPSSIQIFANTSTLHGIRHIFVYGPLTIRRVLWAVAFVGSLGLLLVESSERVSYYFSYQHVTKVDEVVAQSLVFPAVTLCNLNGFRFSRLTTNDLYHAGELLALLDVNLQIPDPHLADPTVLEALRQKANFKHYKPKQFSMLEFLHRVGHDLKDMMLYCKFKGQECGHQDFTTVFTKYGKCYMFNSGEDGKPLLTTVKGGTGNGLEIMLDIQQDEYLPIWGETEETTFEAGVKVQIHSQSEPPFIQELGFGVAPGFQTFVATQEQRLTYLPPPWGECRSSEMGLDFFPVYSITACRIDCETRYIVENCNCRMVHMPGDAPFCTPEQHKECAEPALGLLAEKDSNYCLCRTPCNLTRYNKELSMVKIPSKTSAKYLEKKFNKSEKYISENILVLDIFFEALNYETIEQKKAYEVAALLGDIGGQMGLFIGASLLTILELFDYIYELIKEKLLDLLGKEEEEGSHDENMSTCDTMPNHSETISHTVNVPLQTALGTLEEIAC
T2 sequence (Q62962 1-563 isoform Q62962-2): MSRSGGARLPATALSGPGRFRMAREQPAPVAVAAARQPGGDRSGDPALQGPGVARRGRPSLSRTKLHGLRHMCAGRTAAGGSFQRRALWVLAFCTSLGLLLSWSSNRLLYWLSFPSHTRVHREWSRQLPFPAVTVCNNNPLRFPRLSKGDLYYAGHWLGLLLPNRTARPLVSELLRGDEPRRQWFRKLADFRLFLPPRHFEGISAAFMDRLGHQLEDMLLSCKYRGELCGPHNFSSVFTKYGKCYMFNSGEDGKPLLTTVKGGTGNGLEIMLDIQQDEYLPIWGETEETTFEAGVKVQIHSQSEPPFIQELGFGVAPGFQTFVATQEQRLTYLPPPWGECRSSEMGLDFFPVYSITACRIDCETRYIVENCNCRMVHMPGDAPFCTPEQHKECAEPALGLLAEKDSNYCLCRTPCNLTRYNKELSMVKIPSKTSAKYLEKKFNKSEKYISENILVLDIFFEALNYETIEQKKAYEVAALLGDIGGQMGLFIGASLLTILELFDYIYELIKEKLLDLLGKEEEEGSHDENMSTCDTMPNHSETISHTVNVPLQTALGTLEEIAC

hASIC3 = molecular target: T3, hASIC3 (Homo sapiens, UniProt Q9UHC3); details: 100 μM amiloride, Seguela and Babinski, 1999; cited from earlier work
T3 sequence (Q9UHC3 1-531): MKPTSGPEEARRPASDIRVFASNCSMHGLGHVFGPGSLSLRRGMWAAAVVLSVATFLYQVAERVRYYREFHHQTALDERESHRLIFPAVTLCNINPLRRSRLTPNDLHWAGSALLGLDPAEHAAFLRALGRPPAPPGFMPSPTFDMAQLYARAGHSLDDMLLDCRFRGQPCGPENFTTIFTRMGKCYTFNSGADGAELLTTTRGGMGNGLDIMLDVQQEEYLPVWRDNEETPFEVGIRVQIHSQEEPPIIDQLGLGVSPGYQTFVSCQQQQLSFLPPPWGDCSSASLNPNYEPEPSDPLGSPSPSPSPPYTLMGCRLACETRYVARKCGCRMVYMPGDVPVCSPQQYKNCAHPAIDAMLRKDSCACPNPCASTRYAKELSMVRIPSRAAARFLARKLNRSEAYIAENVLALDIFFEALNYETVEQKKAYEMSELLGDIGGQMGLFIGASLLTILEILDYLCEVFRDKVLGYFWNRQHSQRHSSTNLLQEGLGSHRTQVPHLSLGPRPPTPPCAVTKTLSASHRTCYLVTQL

Rat ASIC3 = molecular target: T4, Rat ASIC3 (Rattus norvegicus, UniProt O35240); details: cited from earlier work
T4 sequence (O35240 1-533): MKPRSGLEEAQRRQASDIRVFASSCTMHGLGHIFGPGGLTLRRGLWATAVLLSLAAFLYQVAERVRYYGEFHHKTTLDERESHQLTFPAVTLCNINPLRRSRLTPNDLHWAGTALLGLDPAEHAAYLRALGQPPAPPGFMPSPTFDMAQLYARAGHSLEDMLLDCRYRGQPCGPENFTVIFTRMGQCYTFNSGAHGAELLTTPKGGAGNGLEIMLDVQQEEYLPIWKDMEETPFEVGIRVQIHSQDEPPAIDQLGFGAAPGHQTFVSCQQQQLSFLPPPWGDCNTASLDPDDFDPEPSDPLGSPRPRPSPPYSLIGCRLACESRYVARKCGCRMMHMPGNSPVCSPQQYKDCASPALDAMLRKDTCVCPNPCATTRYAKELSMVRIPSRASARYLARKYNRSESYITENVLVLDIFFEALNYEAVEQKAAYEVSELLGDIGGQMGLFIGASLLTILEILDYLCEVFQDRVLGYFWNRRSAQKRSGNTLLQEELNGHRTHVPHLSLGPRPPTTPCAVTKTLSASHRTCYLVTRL

SMILES: N=C(N)NC(=O)c1nc(Cl)c(N)nc1N [amiloride]
- IC50 (ASIC1B): 21 µM
- Amiloride sensitivity (block) (MDEG1 + MDEG2): MDEG1 + MDEG2 completely
- decrease of sustained current (hASIC3): sustained current by ˜30%; fast
- IC50 (Rat ASIC3; rat ASIC3 fast component, read-out: Amiloride sensitivity, K0.5, fast component): ~60 µM
- effect of amiloride on slow component (Rat ASIC3; rat ASIC3 slow component): potentiated by amiloride (Waldmann
